Patent US5663201A, “Desferrioxamine-B salts” (CIBA-GEIGY Corporation, priority 1992, dated 1997)
Counter-ions that a name gives are not always drawn. Like-named read-outs stand apart in the source and are kept apart here.

Tests used:
[1] = type: physicochemical; settings: n-octanol/water, 5000 µM
Protocol: (§1) The partition coefficients of the salts prepared in Examples 1 to 5 between n-octanol and water are determined by the `shake-flask` method of Leo et at, Chem. Rev., 71(6), 525 (1971).
The n-octanol and aqueous phases are mutually saturated prior to conducting the experiment. The desferrioxamine-B sulphonic acid addition salt is dissolved in the aqueous phase at a concentration of 0.005 mol/l and the partition experiment is performed by shaking the vessel containing the two phases until an equilibrium has been achieved. […] After equilibrium has been achieved, the sample is centrifuged to enable phase separation. Both organic and aqueous phases are analysed for desferrioxamine-B content via extraction of an appropriate aliquot, quenching with an aqueous (for assay of the aqueous phase) or methanolic (for assay of the n-octanol phase) solution of FeCl3, and measurement of the absorption of the characteristic ferrioxamine-B chelate at ca. 450 nm. Respective calibration plots (absorbance vs. concentration of desferrioxamine-B sulphonic acid salt) for the assay of both aqueous and organic phases show a linear response over the concentration range studied. The results obtained are as follows: […]

[2] = intrinsic dissolution of tablets, Langenbucher flow-through apparatus; type: physicochemical; settings: water, 25° C., listed as decanesulphonate
Protocol: Tablets are prepared from the salts of Examples 1 and 4 by compressing a mixture of 99 parts of the salt and 1 part of magnesium stearate in a 13mm die for 2 minutes under a pressure of 4×10^5 kPa. The intrinsic dissolution rates of the tablets are determined using a Langenbucher flow-through apparatus, with water at 25° C. as the dissolution medium. The amount of desferrioxamine-B dissolved in the medium is measured at intervals using a spectrophotometric assay at 215 nm.

[3] = test system: Daudi cell line (B-cell lymphoma); assay: iron-chelation bioassay: growth inhibiting effect on cells through iron removal, [3H] Thymidine uptake; type: cell-based; settings: 72 hours, Control (0 μM): Ex 18 22297, Ex 19 23897, listed as decanesulphonate
Protocol: The iron-chelating properties of salts of the invention in a biological system are determined by means of a bioassay in which the growth inhibiting effect of the salts on cells through iron removal is measured by the uptake of radioactively labelled thymidine into the cells. The bioassay is carried out using a Daudi cell line (B-cell lymphoma), a Roswell Park Memorial Institute (RPMI) 1640 medium containing 1 µM ferric citrate and supplements as low iron washing medium and RPM11640 together with 5% by weight of foetal calf serum as passaging medium.
The cells are fed 24 hours before use. They are washed twice in the low iron washing medium to remove any excess iron and diluted with this medium to a concentration of 0.2×10^6 cells/0.180 ml. To 0.180 ml aliquots are added 0.02 ml of solutions of the desferrioxamine-B salts under test in phosphate-buffered saline (PBS) to give concentrations ranging from a Control containing no salt to a […] solution. The cells are then incubated at 37° C. in an atmosphere containing 5% by volume of carbon dioxide for 72 hours, being pulsed for the last 8 hours of that time with labelled [^3 H] Thymidine at 5 micro Ci/ml. The resulting cells are harvested and their radioactive disintegrations are counted for 10 minutes. The results are shown in the table below as the average of 4 separate experiments (except the Control result in Example 18 which is the average of 3 separate experiments).

[4] = type: physicochemical; settings: n-octanol/phosphate buffer, pH 7.4
Protocol: as §1
The n-octanol and aqueous phases are mutually saturated prior to conducting the experiment. The desferrioxamine-B sulphonic acid addition salt is dissolved in the aqueous phase at a concentration of 0.005 mol/l and the partition experiment is performed by shaking the vessel containing the two phases until an equilibrium has been achieved. […] After equilibrium has been achieved, the sample is centrifuged to enable phase separation. Both organic and aqueous phases are analysed for desferrioxamine-B content via extraction of an appropriate aliquot, quenching with an aqueous (for assay of the aqueous phase) or methanolic (for assay of the n-octanol phase) solution of FeCl3, and measurement of the absorption of the characteristic ferrioxamine-B chelate at ca. 450 nm. Respective calibration plots (absorbance vs. concentration of desferrioxamine-B sulphonic acid salt) for the assay of both aqueous and organic phases show a linear response over the concentration range studied. The results obtained are as follows:
The partition coefficients of the salts prepared in Examples 1 to 5 between n-octanol and an aqueous phosphate buffer at pH7.4 having an ionic strength of 0.31 mol/l are determined using the procedure of Examples 6-10. The results obtained are as follows:
The use of n-octanol/aqueous media partition coefficients as a model for the lipophilicity of drugs is well established (see the abovementioned Leo et al reference). The aqueous phase in Examples 11 to 15 simulates physiological conditions.

## CC(=O)N(O)CCCCCNC(=O)CCC(=O)N(O)CCCCCNC(=O)CCC(=O)N(O)CCCCCN [Example 1, decane-1-sulphonate/salt of desferrioxamine-B]
[1]
  Partition Coefficient: 0.366
[2]; 1 min
  % Desferrioxaine-B salt dissolved: 1.01%
[2]; 2 min
  % Desferrioxaine-B salt dissolved: 1.65%
[2]; 5 min
  % Desferrioxaine-B salt dissolved: 2.90%
[2]; 10 min
  % Desferrioxaine-B salt dissolved: 4.67%
[2]; 15 min
  % Desferrioxaine-B salt dissolved: 6.17%
[2]; 20 min
  % Desferrioxaine-B salt dissolved: 7.50%
[2]; 30 min
  % Desferrioxaine-B salt dissolved: 9.97%
[2]; 50 min
  % Desferrioxaine-B salt dissolved: 14.21%
[2]; 75 min
  % Desferrioxaine-B salt dissolved: 18.80%
[2]; 100 min
  % Desferrioxaine-B salt dissolved: 22.92%
[2]; 125 min
  % Desferrioxaine-B salt dissolved: 26.62%
[2]; 150 min
  % Desferrioxaine-B salt dissolved: 30.13%
[2]; 175 min
  % Desferrioxaine-B salt dissolved: 33.49%
[2]; 200 min
  % Desferrioxaine-B salt dissolved: 36.85%
[2]; 225 min
  % Desferrioxaine-B salt dissolved: 39.97%
[2]; 250 min
  % Desferrioxaine-B salt dissolved: 42.94%
[2]; 275 min
  % Desferrioxaine-B salt dissolved: 45.87%
[2]; 300 min
  % Desferrioxaine-B salt dissolved: 48.81%
[3]; 0.5 μM salt
  Disintegrations Per Minute ([3H] Thymidine uptake): 23603 Disintegrations Per Minute
[3]; 1 μM salt
  Disintegrations Per Minute ([3H] Thymidine uptake): 14161 Disintegrations Per Minute
[3]; 2 μM salt
  Disintegrations Per Minute ([3H] Thymidine uptake): 6847 Disintegrations Per Minute
[3]; 3 μM salt
  Disintegrations Per Minute ([3H] Thymidine uptake): 6599 Disintegrations Per Minute
[3]; 4 μM salt
  Disintegrations Per Minute ([3H] Thymidine uptake): 5445 Disintegrations Per Minute
[3]; 5 μM salt
  Disintegrations Per Minute ([3H] Thymidine uptake): 5139 Disintegrations Per Minute
[3]; 6 μM salt
  Disintegrations Per Minute ([3H] Thymidine uptake): 4382 Disintegrations Per Minute
[3]; 7.5 μM salt
  Disintegrations Per Minute ([3H] Thymidine uptake): 3262 Disintegrations Per Minute
[3]; 10 μM salt
  Disintegrations Per Minute ([3H] Thymidine uptake): 2172 Disintegrations Per Minute
[3]; 15 μM salt
  Disintegrations Per Minute ([3H] Thymidine uptake): 1101 Disintegrations Per Minute
[3]; 20 μM salt
  Disintegrations Per Minute ([3H] Thymidine uptake): 494 Disintegrations Per Minute
[4]
  Partition Coefficient: 0.060

## CC(=O)N(O)CCCCCNC(=O)CCC(=O)N(O)CCCCCNC(=O)CCC(=O)N(O)CCCCCN [Example 2, butane-1-sulphonate salt of desferrioxamine-B]
[1]
  Partition Coefficient: 0.008
[4]
  Partition Coefficient: 0.006

## CC(=O)N(O)CCCCCNC(=O)CCC(=O)N(O)CCCCCNC(=O)CCC(=O)N(O)CCCCCN [Example 3, hexane-1-sulphonate salt of desferrioxamine-B]
[1]
  Partition Coefficient: 0.020
[4]
  Partition Coefficient: 0.010

## CC(=O)N(O)CCCCCNC(=O)CCC(=O)N(O)CCCCCNC(=O)CCC(=O)N(O)CCCCCN [Example 5, dodecane-1-sulphonate salt of desferrioxamine-B]
[1]
  Partition Coefficient: 0.450
[4]
  Partition Coefficient: 0.028
